The values that follow come from patent publication US20260070945A1, “MACROCYCLIC IMMUNOMODULATORS” (Bristol-Myers Squibb Company, priority 2022, published 2026).

pIC50: −log10 of the molar value. *1 amine or outer side, *2 acyl side, *3 side chain or, on linkers, in order; H or OH if unused. Where a SMILES comes first, the peptide text is derived from it. Bridges are numbered along the chain shown (N, C = ends). [ ]: non-standard residue; d: D form. The star is where a group is joined. Trp(1-CH2COOH) = N[C@@H](Cc1cn(CC(=O)O)c2ccccc12)C(=O)O; Phe(4-COOH) = N[C@@H](Cc1ccc(C(=O)O)cc1)C(=O)O; Bip = N[C@@H](Cc1ccc(-c2ccccc2)cc1)C(=O)O; Phe(3-CN) = N#Cc1cccc(C[C@H](N)C(=O)O)c1; Phe(3-Cl) = N[C@@H](Cc1cccc(Cl)c1)C(=O)O; Phe(4-CN) = N#Cc1ccc(C[C@H](N)C(=O)O)cc1; Phe(4-NH2) = Nc1ccc(C[C@H](N)C(=O)O)cc1; Phe(3-Me) = Cc1cccc(C[C@H](N)C(=O)O)c1; Phe(4-Me) = Cc1ccc(C[C@H](N)C(=O)O)cc1; Phe(2-Me) = Cc1ccccc1C[C@H](N)C(=O)O; X2 = CC(C)=C[C@H](N[*:1])C(=O)[*:2]; Val(3-OH) = CC(C)(O)[C@H](N)C(=O)O; 3Pal = N[C@@H](Cc1cccnc1)C(=O)O; Aad = N[C@@H](CCCC(=O)O)C(=O)O; Cha = N[C@@H](CC1CCCCC1)C(=O)O; Chg = N[C@H](C(=O)O)C1CCCCC1; Carboxymethyl = O=C(O)C*; NMeA = CN[C@@H](C)C(=O)O; Aun = NCCCCCCCCCCC(=O)O; Dab = NCC[C@H](N)C(=O)O

T1 sequence (Q15116 25-288): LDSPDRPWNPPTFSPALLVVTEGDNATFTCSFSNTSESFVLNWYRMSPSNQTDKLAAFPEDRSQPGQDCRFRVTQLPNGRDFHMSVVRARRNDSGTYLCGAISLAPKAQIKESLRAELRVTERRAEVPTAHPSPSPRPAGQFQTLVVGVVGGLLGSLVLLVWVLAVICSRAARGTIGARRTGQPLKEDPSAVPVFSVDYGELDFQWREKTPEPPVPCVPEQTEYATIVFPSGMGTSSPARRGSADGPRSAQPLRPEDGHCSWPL

The experiment has as its target T1, PD-1/PD-L1 interaction (PE-labeled human PD-L1-Ig binding to Jurkat cell line over-expressing human PD-1) (Homo sapiens, UniProt Q15116).
T1 construct: expressed in transfected cells; host or cells: Jurkat
Briefly: Jurkat-PD-1 Cell Binding High-Content Screening Assay (CBA). As to conditions: Jurkat-hPD-1 cells, PE-labeled PD-L1-Ig 20 nM final; read-out: Jurkat HPD1 PDL1 IC50. In outline: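 Jurkat-hPD-1 cells (8×10^3/well) in DMEM with 10% fetal calf serum were preincubated with compound for 2 h at 37 °C. PE-labeled PD-L1-Ig was then added at 20 nM final for 1 h. Cells were fixed in paraformaldehyde with Hoechst 33342, washed and imaged by high-content imaging.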
The term pIC50 denotes the IC50 on a negative log10 scale, so that one unit is a factor of ten. With `Cc1cccc(C[C@@H]2NC(=O)[C@H](CC(=O)O)NC(=O)[C@H](Cc3ccc(C(=O)O)cc3)NC(=O)[C@H](CCN)NC(=O)CSC[C@@H](C(=O)N[C@@H](CCN)C(=O)NCCCCCCCCCCC(=O)O)NC(=O)[C@H](CO)NC(=O)[C@H](C(C)(C)O)NC(=O)[C@H](CC3CCCCC3)NC(=O)[C@H](CCN)NC(=O)[C@@H](CC(C)C)NC(=O)[C@H](C)N(C)C(=O)[C@H](Cc3ccc(OCC(=O)O)cc3)NC(=O)[C@H](Cc3ccc(-c4ccccc4)cc3)NC(=O)[C@H](Cc3ccccc3C)NC2=O)c1` [Example 1296] ({CH2CO}-[Dab][Phe(4-COOH)]D[Phe(3-Me)][Phe(2-Me)][Bip]Y(Carboxymethyl)[NMeA][dL][Dab][Cha][Val(3-OH)]SC[Dab][Aun]-OH; thioether N-14), the pIC50 is 7.31.

Take `Cc1cccc(C[C@@H]2NC(=O)[C@H](CC(=O)O)NC(=O)[C@H](Cc3ccc(C(=O)O)cc3)NC(=O)[C@H](CCN)NC(=O)CSC[C@@H](C(=O)N[C@@H](CCN)C(=O)NCCCCCCCCCCC(=O)O)NC(=O)[C@H](CO)NC(=O)[C@H](C(C)(C)O)NC(=O)[C@H](CC3CCCCC3)NC(=O)[C@H](CCN)NC(=O)[C@@H](CC(C)C)NC(=O)[C@H](C)N(C)C(=O)[C@H](Cc3ccc(OCC(=O)O)cc3)NC(=O)[C@H](Cc3ccc(-c4ccccc4)cc3)NC(=O)[C@H](Cc3cccc(Cl)c3)NC2=O)c1` [Example 1297] ({CH2CO}-[Dab][Phe(4-COOH)]D[Phe(3-Me)][Phe(3-Cl)][Bip]Y(Carboxymethyl)[NMeA][dL][Dab][Cha][Val(3-OH)]SC[Dab][Aun]-OH; thioether N-14): the pIC50 was 7.48.

Consider `Cc1cccc(C[C@@H]2NC(=O)[C@H](CC(=O)O)NC(=O)[C@H](Cc3ccc(C(=O)O)cc3)NC(=O)[C@H](CCN)NC(=O)CSC[C@@H](C(=O)N[C@@H](CCN)C(=O)NCCCCCCCCCCC(=O)O)NC(=O)[C@H](CO)NC(=O)[C@H](C(C)(C)O)NC(=O)[C@H](CC3CCCCC3)NC(=O)[C@H](CCN)NC(=O)[C@@H](CC(C)C)NC(=O)[C@H](C)N(C)C(=O)[C@H](Cc3ccc(OCC(=O)O)cc3)NC(=O)[C@H](Cc3ccc(-c4ccccc4)cc3)NC(=O)[C@H](CCCC(=O)O)NC2=O)c1` [Example 1298] ({CH2CO}-[Dab][Phe(4-COOH)]D[Phe(3-Me)][Aad][Bip]Y(Carboxymethyl)[NMeA][dL][Dab][Cha][Val(3-OH)]SC[Dab][Aun]-OH; thioether N-14), for which the pIC50 is 7.79.

Regarding `CC[C@H](C)[C@@H]1NC(=O)[C@H](Cc2cccc(C)c2)NC(=O)[C@H](CC(=O)O)NC(=O)[C@H](Cc2ccc(C(=O)O)cc2)NC(=O)[C@H](CCN)NC(=O)CSC[C@@H](C(=O)N[C@@H](CCN)C(=O)NCCCCCCCCCCC(=O)O)NC(=O)[C@H](CO)NC(=O)[C@H](C(C)(C)O)NC(=O)[C@H](CC2CCCCC2)NC(=O)[C@H](CCN)NC(=O)[C@@H](CC(C)C)NC(=O)[C@H](C)N(C)C(=O)[C@H](Cc2ccc(OCC(=O)O)cc2)NC(=O)[C@H](Cc2ccc(-c3ccccc3)cc2)NC1=O` [Example 1299] ({CH2CO}-[Dab][Phe(4-COOH)]D[Phe(3-Me)]I[Bip]Y(Carboxymethyl)[NMeA][dL][Dab][Cha][Val(3-OH)]SC[Dab][Aun]-OH; thioether N-14), the pIC50 is 7.94.

For the molecule `Cc1cccc(C[C@@H]2NC(=O)[C@H](CC(=O)O)NC(=O)[C@H](Cc3ccc(C(=O)O)cc3)NC(=O)[C@H](CCN)NC(=O)CSC[C@@H](C(=O)N[C@@H](CCN)C(=O)NCCCCCCCCCCC(=O)O)NC(=O)[C@H](CO)NC(=O)[C@H](C(C)(C)O)NC(=O)[C@H](CC3CCCCC3)NC(=O)[C@H](CCN)NC(=O)[C@@H](CC(C)C)NC(=O)[C@H](C)N(C)C(=O)[C@H](Cc3ccc(OCC(=O)O)cc3)NC(=O)[C@H](Cc3ccc(-c4ccccc4)cc3)NC(=O)[C@H](Cc3ccc(C#N)cc3)NC2=O)c1` [Example 1300] ({CH2CO}-[Dab][Phe(4-COOH)]D[Phe(3-Me)][Phe(4-CN)][Bip]Y(Carboxymethyl)[NMeA][dL][Dab][Cha][Val(3-OH)]SC[Dab][Aun]-OH; thioether N-14), the pIC50 is 7.67.

As for `Cc1ccc(C[C@@H]2NC(=O)[C@H](Cc3cccc(C)c3)NC(=O)[C@H](CC(=O)O)NC(=O)[C@H](Cc3ccc(C(=O)O)cc3)NC(=O)[C@H](CCN)NC(=O)CSC[C@@H](C(=O)N[C@@H](CCN)C(=O)NCCCCCCCCCCC(=O)O)NC(=O)[C@H](CO)NC(=O)[C@H](C(C)(C)O)NC(=O)[C@H](CC3CCCCC3)NC(=O)[C@H](CCN)NC(=O)[C@@H](CC(C)C)NC(=O)[C@H](C)N(C)C(=O)[C@H](Cc3ccc(OCC(=O)O)cc3)NC(=O)[C@H](Cc3ccc(-c4ccccc4)cc3)NC2=O)cc1` [Example 1301] ({CH2CO}-[Dab][Phe(4-COOH)]D[Phe(3-Me)][Phe(4-Me)][Bip]Y(Carboxymethyl)[NMeA][dL][Dab][Cha][Val(3-OH)]SC[Dab][Aun]-OH; thioether N-14), the pIC50 was 7.57.

As to `Cc1cccc(C[C@@H]2NC(=O)[C@H](CC(=O)O)NC(=O)[C@H](Cc3ccc(C(=O)O)cc3)NC(=O)[C@H](CCN)NC(=O)CSC[C@@H](C(=O)N[C@@H](CCN)C(=O)NCCCCCCCCCCC(=O)O)NC(=O)[C@H](CO)NC(=O)[C@H](C(C)(C)O)NC(=O)[C@H](CC3CCCCC3)NC(=O)[C@H](CCN)NC(=O)[C@@H](CC(C)C)NC(=O)[C@H](C)N(C)C(=O)[C@H](Cc3ccc(OCC(=O)O)cc3)NC(=O)[C@H](Cc3ccc(-c4ccccc4)cc3)NC(=O)[C@H](C3CCCCC3)NC2=O)c1` [Example 1302] ({CH2CO}-[Dab][Phe(4-COOH)]D[Phe(3-Me)][Chg][Bip]Y(Carboxymethyl)[NMeA][dL][Dab][Cha][Val(3-OH)]SC[Dab][Aun]-OH; thioether N-14), the pIC50 was 7.75.

Turning to `CC(C)=C[C@@H]1NC(=O)[C@H](Cc2cccc(C)c2)NC(=O)[C@H](CC(=O)O)NC(=O)[C@H](Cc2ccc(C(=O)O)cc2)NC(=O)[C@H](CCN)NC(=O)CSC[C@@H](C(=O)N[C@@H](CCN)C(=O)NCCCCCCCCCCC(=O)O)NC(=O)[C@H](CO)NC(=O)[C@H](C(C)(C)O)NC(=O)[C@H](CC2CCCCC2)NC(=O)[C@H](CCN)NC(=O)[C@@H](CC(C)C)NC(=O)[C@H](C)N(C)C(=O)[C@H](Cc2ccc(OCC(=O)O)cc2)NC(=O)[C@H](Cc2ccc(-c3ccccc3)cc2)NC1=O` [Example 1303] ({CH2CO}-[Dab][Phe(4-COOH)]D[Phe(3-Me)][X2][Bip]Y(Carboxymethyl)[NMeA][dL][Dab][Cha][Val(3-OH)]SC[Dab][Aun]-OH; thioether N-14), the pIC50 is 7.57.

For the molecule `Cc1cccc(C[C@@H]2NC(=O)[C@H](CC(=O)O)NC(=O)[C@H](Cc3cn(CC(=O)O)c4ccccc34)NC(=O)[C@H]([C@@H](C)O)NC(=O)CSC[C@@H](C(=O)N[C@@H](CCN)C(=O)NCCCCCCCCCCC(=O)O)NC(=O)[C@H]([C@@H](C)O)NC(=O)[C@H](C(C)C)NC(=O)[C@H](CC3CCCCC3)NC(=O)[C@H](CCN)NC(=O)[C@@H](CC(C)C)NC(=O)[C@H](C)N(C)C(=O)[C@H](Cc3ccc(OCC(=O)O)cc3)NC(=O)[C@H](Cc3ccc(-c4ccccc4)cc3)NC(=O)[C@H](Cc3ccc(OCC(=O)O)cc3)NC2=O)c1` [Example 1304] ({CH2CO}-T[Trp(1-CH2COOH)]D[Phe(3-Me)]Y(Carboxymethyl)[Bip]Y(Carboxymethyl)[NMeA][dL][Dab][Cha]VTC[Dab][Aun]-OH; thioether N-14), the pIC50 is 7.35.

`Cc1cccc(C[C@@H]2NC(=O)[C@H](CC(=O)O)NC(=O)[C@H](Cc3ccc(OCC(=O)O)cc3)NC(=O)[C@H](CCN)NC(=O)CSC[C@@H](C(=O)N[C@@H](CCN)C(=O)NCCCCCCCCCCC(=O)O)NC(=O)[C@H](CO)NC(=O)[C@H](C(C)(C)O)NC(=O)[C@H](CC3CCCCC3)NC(=O)[C@H](CCN)NC(=O)[C@@H](CC(C)C)NC(=O)[C@H](C)N(C)C(=O)[C@H](Cc3ccc(OCC(=O)O)cc3)NC(=O)[C@H](Cc3ccc(-c4ccccc4)cc3)NC(=O)[C@H](Cc3cccnc3)NC2=O)c1` [Example 1305] ({CH2CO}-[Dab]Y(Carboxymethyl)D[Phe(3-Me)][3Pal][Bip]Y(Carboxymethyl)[NMeA][dL][Dab][Cha][Val(3-OH)]SC[Dab][Aun]-OH; thioether N-14): the pIC50 is 7.61.

As for `Cc1cccc(C[C@@H]2NC(=O)[C@H](CC(=O)O)NC(=O)[C@H](Cc3ccc(OCC(=O)O)cc3)NC(=O)[C@H](CCN)NC(=O)CSC[C@@H](C(=O)N[C@@H](CCN)C(=O)NCCCCCCCCCCC(=O)O)NC(=O)[C@H](CO)NC(=O)[C@H](C(C)(C)O)NC(=O)[C@H](CC3CCCCC3)NC(=O)[C@H](CCN)NC(=O)[C@@H](CC(C)C)NC(=O)[C@H](C)N(C)C(=O)[C@H](Cc3ccc(OCC(=O)O)cc3)NC(=O)[C@H](Cc3ccc(-c4ccccc4)cc3)NC(=O)[C@H](Cc3cccc(C#N)c3)NC2=O)c1` [Example 1306] ({CH2CO}-[Dab]Y(Carboxymethyl)D[Phe(3-Me)][Phe(3-CN)][Bip]Y(Carboxymethyl)[NMeA][dL][Dab][Cha][Val(3-OH)]SC[Dab][Aun]-OH; thioether N-14), the pIC50 is 7.62.

With `Cc1cccc(C[C@@H]2NC(=O)[C@H](CC(=O)O)NC(=O)[C@H](Cc3ccc(OCC(=O)O)cc3)NC(=O)[C@H](CCN)NC(=O)CSC[C@@H](C(=O)N[C@@H](CCN)C(=O)NCCCCCCCCCCC(=O)O)NC(=O)[C@H](CO)NC(=O)[C@H](C(C)(C)O)NC(=O)[C@H](CC3CCCCC3)NC(=O)[C@H](CCN)NC(=O)[C@@H](CC(C)C)NC(=O)[C@H](C)N(C)C(=O)[C@H](Cc3ccc(OCC(=O)O)cc3)NC(=O)[C@H](Cc3ccc(-c4ccccc4)cc3)NC(=O)[C@H](Cc3ccc(N)cc3)NC2=O)c1` [Example 1307] ({CH2CO}-[Dab]Y(Carboxymethyl)D[Phe(3-Me)][Phe(4-NH2)][Bip]Y(Carboxymethyl)[NMeA][dL][Dab][Cha][Val(3-OH)]SC[Dab][Aun]-OH; thioether N-14), the pIC50 is 7.38.
